ChEMBL document CHEMBL4732067, “Synthesis and evaluation of new compounds bearing 3-(4-aminopiperidin-1-yl)methyl magnolol scaffold as anticancer agents for the treatment of non-small cell lung cancer via targeting autophagy” (Eur J Med Chem, 2021)

What was measured:
NCI-H1975 = assay: Antiproliferative activity against human NCI-H1975 cells assessed as reduction in cell viability after 72 hrs by MTT assay; format: functional, cell-based; conditions: NCI-H1975, 72 h
NCI-H460 = assay: Antiproliferative activity against human NCI-H460 cells assessed as reduction in cell viability after 72 hrs by MTT assay; format: functional, cell-based; conditions: NCI-H460, 72 h
HCC827 = assay: Antiproliferative activity against human HCC827 cells assessed as reduction in cell viability after 72 hrs by MTT assay; format: functional, cell-based; conditions: HCC827, 72 h
NCI-H441 = assay: Antiproliferative activity against human NCI-H441 cells […] assessed as reduction in cell viability after 72 hrs by MTT assay; format: functional, cell-based; conditions: NCI-H441, 72 h
[1] = Metabolic stability in human liver microsomes assessed as half life; format: ADME, Microsome
L929 = assay: Cytotoxicity against mouse L929 cells; format: cell-based
[2] = Antiproliferative activity against human SPCA1 cells expressing wild type EGFR assessed as reduction in cell viability after 72 hrs by MTT assay; format: functional, cell-based; conditions: SPCA1, 72 h
NCI-H1650 = assay: Antiproliferative activity against human NCI-H1650 cells expressing EGFR mutant assessed as reduction in cell viability after 72 hrs by MTT assay; format: functional, cell-based; conditions: NCI-H1650, 72 h
[3] = Metabolic stability in human liver microsomes assessed as intrinsic clearance per gram protein; format: ADME, Microsome
A549 = assay: Antiproliferative activity against human A549 cells expressing wild type EGFR assessed as reduction in cell viability after 72 hrs by MTT assay; format: functional, cell-based; conditions: A549, 72 h
[4] = Toxicity in nude BALB/c mouse xenografted with C26 cells assessed as abnormalities in liver size and morphology at 50 mg/kg, po administered once daily; format: organism-based; conditions: in vivo
[5] = Toxicity in nude BALB/c mouse xenografted with C26 cells assessed as abnormalities in heart size and morphology at 50 mg/kg, po administered once daily; format: organism-based; conditions: in vivo
[6] = Toxicity in nude BALB/c mouse xenografted with C26 cells assessed as change in body weight at 50 mg/kg, po administered once daily and measured every two days; format: organism-based; conditions: in vivo
[7] = Toxicity in nude BALB/c mouse xenografted with C26 cells assessed as abnormalities in lung size and morphology at 50 mg/kg, po administered once daily; format: organism-based; conditions: in vivo
[8] = Antitumor activity against mouse C26 cells xenografted in BALB/c mouse assessed as tumor growth inhibition at 50 mg/kg, po administered once daily and measured every two days by caliper method relative to control; format: functional; conditions: 48 h, read-out: TGI
[9] = Toxicity in nude BALB/c mouse xenografted with C26 cells assessed as abnormalities in kidney size and morphology at 50 mg/kg, po administered once daily; format: organism-based; conditions: in vivo

Row | Compound | IC50 (NCI-H1975) [µM] | IC50 (NCI-H460) [µM] | IC50 (HCC827) [µM] | also measured
1 | C=CCc1ccc(O)c(-c2cc(CC=C)cc(CN3CCC(NC(=O)[C@H](N)CO)CC3)c2O)c1 | 10.3 | 8.32 | 9.05 | –
2 | C=CCc1ccc(OCC)c(-c2cc(CC=C)cc(CN3CCC(NC(=O)[C@H](N)c4ccccc4)CC3)c2O)c1 | 7.31 | 1.46 | 1.23 | –
3 | C=CCc1ccc(OC(C)C)c(-c2cc(CC=C)cc(CN3CCC(N)CC3)c2OC(C)C)c1 | 4.14 | 2.87 | 2.05 | –
4 | C=CCc1ccc(O)c(-c2cc(CC=C)cc(CN3CCC(NC(=O)[C@@H](N)CC(C)C)CC3)c2O)c1 | > 20 | > 20 | > 20 | –
5 | C=CCc1ccc(OCC)c(-c2cc(CC=C)cc(CN3CCC(N)CC3)c2O)c1 | 1.43 | 1.26 | 0.94 | IC50 (NCI-H441): 2.98 µM; half-life [1]: 130 min; IC50 (L929): 1.78 µM; IC50 [2]: 3.46 µM; IC50 (NCI-H1650): 4.15 µM; CLint [3]: 10.7 mL/min/g; IC50 (A549): 3.05 µM
6 | C=CCc1ccc(OCCCCO)c(-c2cc(CC=C)cc(CN3CCC(N)CC3)c2O)c1 | 7.43 | 8.78 | 7.39 | –
7 | C=CCc1ccc(OCC)c(-c2cc(CC=C)cc(CN3CCC(N)CC3)c2OCC)c1 | 3.45 | 3.64 | 2.12 | –
8 | C=CCc1ccc(O)c(-c2cc(CC=C)cc(CCN3CCC(N)CC3)c2O)c1 | > 20 | > 20 | > 20 | –
9 | C=CCc1ccc(O)c(-c2cc(CC=C)cc(CN3CCC(NC(=O)[C@@H](N)Cc4ccccc4)CC3)c2O)c1 | 11.3 | 12.5 | 10.9 | –
10 | C=CCc1ccc(O)c(-c2cc(CC=C)cc(CN3CCC(NC(=O)[C@H](N)CC(C)C)CC3)c2O)c1 | > 20 | > 20 | > 20 | –
11 | C=CCc1ccc(O)c(-c2cc(CC=C)cc(CN3CCC(NC(=O)[C@@H](N)CO)CC3)c2O)c1 | 7.38 | 6.57 | 6.24 | –
12 | C=CCc1ccc(OCCCCCOC(C)=O)c(-c2cc(CC=C)cc(CN3CCC(N)CC3)c2OCCCCCOC(C)=O)c1 | > 20 | > 20 | > 20 | –
13 | C=CCc1ccc(O)c(-c2cc(CC=C)cc(Cn3ccc(N)n3)c2O)c1 | > 20 | > 20 | 16.2 | –
14 | C=CCc1ccc(O)c(-c2cc(CC=C)cc(CN3CCC(NC(=O)[C@H](N)Cc4ccccc4)CC3)c2O)c1 | 4.08 | 4.32 | 4.74 | –
15 | C#CCOc1ccc(CC=C)cc1-c1cc(CC=C)cc(CN2CCC(N)CC2)c1O | > 20 | > 20 | > 20 | –
16 | C=CCc1ccc(O)c(-c2cc(CC=C)cc(CN3CCC(NC(=O)[C@@H](N)CCSC)CC3)c2O)c1 | > 20 | > 20 | > 20 | –
17 | C=CCc1ccc(O)c(-c2cc(CC=C)cc(CN3CCC(NC(=O)[C@H](N)c4ccccc4)CC3)c2O)c1 | 6.85 | 6.43 | 5.89 | –
18 | C=CCc1ccc(OCC2CCCO2)c(-c2cc(CC=C)cc(CN3CCC(N)CC3)c2O)c1 (stereo unspecified) | 5.72 | 2.76 | 2.44 | –
19 | C=CCc1ccc(O)c(-c2cc(CC=C)cc(CN3CCC(NC(=O)CCCN)CC3)c2O)c1 | > 20 | > 20 | > 20 | –
20 | C=CCc1ccc(O)c(-c2cc(CC=C)cc(CN3CCC(NC(=O)[C@H](N)CCSC)CC3)c2O)c1 | > 20 | > 20 | > 20 | –
21 | C=CCc1ccc(OC2CCCC2)c(-c2cc(CC=C)cc(CN3CCC(N)CC3)c2O)c1 | 6.37 | 5.85 | 3.51 | –
22 | C=CCc1ccc(O)c(-c2cc(CC=C)ccc2O)c1 [MAGNOLOL] | 87.3 | 95.6 | 94.7 | IC50 (NCI-H441): 65.8 µM; half-life [1]: 14.7 min; IC50 [2]: 92.5 µM; IC50 (NCI-H1650): 66.3 µM; CLint [3]: 94 mL/min/g; IC50 (A549): 82.4 µM
23 | C=CCc1ccc(OC)c(-c2cc(CC=C)cc(CN3CCC(N)CC3)c2O)c1 | 4.1 | 4.27 | 3.44 | –
24 | C=CCCCCOc1ccc(CC=C)cc1-c1cc(CC=C)cc(CN2CCC(N)CC2)c1O | 14 | 6.88 | 4.48 | –
25 | C=CCc1ccc(O)c(-c2cc(CC=C)cc(CCCCN3CCC(N)CC3)c2O)c1 | > 20 | > 20 | > 20 | –

Row | Compound | IC50 (NCI-H1975) [µM] | IC50 (NCI-H460) [µM] | IC50 (HCC827) [µM] | also measured
26 | C=CCc1ccc(OCCCCOC(C)=O)c(-c2cc(CC=C)cc(CN3CCC(N)CC3)c2O)c1 | > 20 | > 20 | > 20 | –
27 | C=CCc1ccc(OCCCCCO)c(-c2cc(CC=C)cc(CN3CCC(N)CC3)c2O)c1 | 9.65 | 10.2 | 8.71 | –
28 | C=CCc1ccc(O)c(-c2cc(CC=C)cc(CN3CCC(NC(=O)[C@@H]4CCCN4)CC3)c2O)c1 | > 20 | > 20 | > 20 | –
29 | C=CCc1ccc(O)c(-c2cc(CC=C)cc(CCCN3CCC(N)CC3)c2O)c1 | > 20 | > 20 | > 20 | –
30 | C=CCc1ccc(OCCCCCC)c(-c2cc(CC=C)cc(CN3CCC(N)CC3)c2O)c1 | 12.3 | 9.46 | 12.5 | –
31 | C=CCc1ccc(OCC)c(-c2cc(CC=C)cc(CN3CCC(NC(=O)[C@@H](N)CO)CC3)c2O)c1 | 6.98 | 6.15 | 5.42 | –
32 | C=CCc1ccc(OCCCO)c(-c2cc(CC=C)cc(CN3CCC(N)CC3)c2O)c1 | 6.98 | 6.66 | 6.29 | –
33 | C=CCc1ccc(O)c(-c2cc(CC=C)cc(CN3CCC(NC(=O)[C@@H](C)N)CC3)c2O)c1 | > 20 | > 20 | > 20 | –
34 | C=CCc1ccc(O)c(-c2cc(CC=C)cc(CN3CCC(NC(=O)[C@H](C)N)CC3)c2O)c1 | > 20 | 17.3 | > 20 | –
35 | C=CCc1ccc(O)c(-c2cc(CC=C)cc(CN3CCCC3)c2O)c1 | > 20 | > 20 | > 20 | –
36 | C=CCc1ccc(OC(C)C)c(-c2cc(CC=C)cc(CN3CCC(NC(=O)[C@H](N)c4ccccc4)CC3)c2O)c1 | 4.21 | 1.73 | 1.56 | –
37 | C=CCc1ccc(O)c(-c2cc(CC=C)cc(CN3CCC(NC(=O)CCN)CC3)c2O)c1 | > 20 | > 20 | > 20 | –
38 | C=CCc1ccc(OC(C)C)c(-c2cc(CC=C)cc(CN3CCC(NC(=O)[C@@H](N)Cc4ccccc4)CC3)c2O)c1 | 2.76 | 1.32 | 0.85 | IC50 (NCI-H441): 2.04 µM; half-life [1]: 21.7 min; Activity [4]: Non-Toxic; IC50 (L929): 6.24 µM; IC50 [2]: 1.35 µM; Activity [5]: Non-Toxic; Activity [6]: Toxic; Activity [7]: Non-Toxic; IC50 (NCI-H1650): 1.68 µM; inhibition in vivo at 50 mg/kg [8]: 62.4%; Activity [9]: Non-Toxic; CLint [3]: 63.8 mL/min/g; IC50 (A549): 1.22 µM
39 | C=CCCOc1ccc(CC=C)cc1-c1cc(CC=C)cc(CN2CCC(N)CC2)c1O | 12.2 | 6.12 | 4.3 | –
40 | C=CCc1ccc(O)c(-c2cc(CC=C)cc(CN3CC[C@H](N)C3)c2O)c1 | > 20 | > 20 | > 20 | –
41 | C=CCc1ccc(O)c(-c2cc(CC=C)cc(CN3CCC(NC(=O)[C@H]4CCCN4)CC3)c2O)c1 | > 20 | > 20 | > 20 | –
42 | C=CCc1ccc(O)c(-c2cc(CC=C)cc(CN3CCC[C@@H]3CO)c2O)c1 | > 20 | > 20 | > 20 | –
43 | C=CCc1ccc(O)c(-c2cc(CC=C)cc(CN3CCC(NC(=O)[C@@H](N)c4ccccc4)CC3)c2O)c1 | 15.9 | 15.8 | 12.3 | –
44 | C=CCc1ccc(OCCO)c(-c2cc(CC=C)cc(CN3CCC(N)CC3)c2O)c1 | 6.84 | 6.16 | 4.34 | –
45 | C=CCc1ccc(O)c(-c2cc(CC=C)cc(CN3CC[C@H](O)C3)c2O)c1 | > 20 | > 20 | > 20 | –
46 | C=CCc1ccc(OCCC)c(-c2cc(CC=C)cc(CN3CCC(N)CC3)c2O)c1 | 4.97 | 4.85 | 5.27 | –
47 | C=CCc1ccc(OCCCC)c(-c2cc(CC=C)cc(CN3CCC(N)CC3)c2O)c1 | 10.4 | 8.76 | 9.45 | –
48 | C=CCc1ccc(O)c(-c2cc(CC=C)cc(CN3CCC(NC(=O)CCCCCN)CC3)c2O)c1 | > 20 | > 20 | > 20 | –
49 | C=CCc1ccc(O)c(-c2cc(CC=C)cc(Cn3cc(N)cn3)c2O)c1 | > 20 | > 20 | 15.4 | –
50 | C=CCc1ccc(OC(C)C)c(-c2cc(CC=C)cc(CN3CCC(NC(=O)[C@@H](N)CO)CC3)c2O)c1 | 5.71 | 2.87 | 2.85 | –
